According to PubChem BioAssay AID1918948 (Molecular Pharmacology Branch, DTP, NCI, 2023):
pIC50: −log10 of the molar value.

System: K-562 leukemia growth, % test/control
Assay: Anticancer human tumor K-562 cell line growth inhibition;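 note: spheroids exposed to compounds for 7 days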;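 for viability, T/C: 100% = DMSO vehicle wells and lower values mean fewer viable cells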
Details: spheroids with HUVEC and MSC; for pIC50: curve of first compound; for viability, T/C: stronger effect = lower value
How it was run: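 Multicellular complex spheroids of tumor cells with human endothelial cells (HUVEC) and mesenchymal stem cells; the LSD1 inhibitor iadademstat was combined with standard-of-care or investigational agents. Top concentration at or near clinical Cmax, half-log dilutions; final DMSO ≤0.25%.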

[1] = second compound 0.1 µM, first compound 0.0316 µM
[2] = second compound 0.1 µM, first compound 0.1 µM
[3] = second compound 0.1 µM, first compound 0.316 µM
[4] = second compound 0.1 µM, first compound 1 µM
[5] = second compound 0.1 µM, first compound 3.16 µM
[6] = second compound 0.1 µM, first compound 10 µM
[7] = second compound 0.316 µM, first compound 0.0316 µM
[8] = second compound 0.316 µM, first compound 0.1 µM
[9] = second compound 0.316 µM, first compound 0.316 µM
[10] = second compound 0.316 µM, first compound 1 µM
[11] = second compound 0.316 µM, first compound 3.16 µM
[12] = second compound 0.316 µM, first compound 10 µM
[13] = second compound 1 µM, first compound 0.0316 µM
[14] = second compound 1 µM, first compound 0.1 µM
[15] = second compound 1 µM, first compound 0.316 µM
[16] = second compound 1 µM, first compound 1 µM
[17] = second compound 1 µM, first compound 3.16 µM
[18] = second compound 1 µM, first compound 10 µM
[19] = second compound 3.16 µM, first compound 0.0316 µM
[20] = second compound 3.16 µM, first compound 0.1 µM
[21] = second compound 3.16 µM, first compound 0.316 µM
[22] = second compound 3.16 µM, first compound 1 µM
[23] = second compound 3.16 µM, first compound 3.16 µM
[24] = second compound 3.16 µM, first compound 10 µM
[25] = second compound 10 µM, first compound 0.0316 µM
[26] = second compound 10 µM, first compound 0.1 µM
[27] = second compound 10 µM, first compound 0.316 µM
[28] = second compound 10 µM, first compound 1 µM
[29] = second compound 10 µM, first compound 3.16 µM
[30] = second compound 10 µM, first compound 10 µM

Structure (SMILES) | pIC50 (second compound 0.1 µM) | pIC50 (second compound 0.316 µM) | pIC50 (second compound 1 µM) | pIC50 (second compound 3.16 µM) | pIC50 (second compound 10 µM) | viability, T/C [1] [%] | viability, T/C [2] [%] | viability, T/C [3] [%] | viability, T/C [4] [%] | viability, T/C [5] [%] | viability, T/C [6] [%] | viability, T/C [7] [%] | viability, T/C [8] [%] | viability, T/C [9] [%] | viability, T/C [10] [%] | viability, T/C [11] [%] | viability, T/C [12] [%] | viability, T/C [13] [%] | viability, T/C [14] [%] | viability, T/C [15] [%] | further results
CC(C)c1c(-c2ccccc2)nc2c(C#N)c[nH]n2c1=O + NC1CCC(NC2CC2c2ccccc2)CC1 | < 5.00 | < 5.00 | < 5.00 | < 5.00 | < 5.00 | 98.7 | 95.2 | 96.6 | 100 | 99.1 | 98.9 | 100 | 101 | 99.8 | 98.6 | 99.6 | 98.9 | 102 | 102 | 100 | viability, T/C [16]: 99.4%; viability, T/C [17]: 100%; viability, T/C [18]: 101%; viability, T/C [19]: 102%; viability, T/C [20]: 102%; viability, T/C [21]: 99.7%; viability, T/C [22]: 102%; viability, T/C [23]: 103%; viability, T/C [24]: 100%; viability, T/C [25]: 95.6%; viability, T/C [26]: 98.7%; viability, T/C [27]: 96.8%; viability, T/C [28]: 97%; viability, T/C [29]: 97.9%; viability, T/C [30]: 98.4%
COc1ccc([C@@H](O)c2cc(-c3ncnc4cc(N5CCOCC5)ccc34)c(F)cc2Cl)nn1 + NC1CCC(NC2CC2c2ccccc2)CC1 | 5.03 | 5.00 | < 5.00 | 5.01 | 5.09 | 100 | 100 | 101 | 103 | 96.6 | 46.5 | 101 | 101 | 104 | 106 | 98.2 | 49.5 | 105 | 103 | 105 | viability, T/C [16]: 105%; viability, T/C [17]: 98.2%; viability, T/C [18]: 51.8%; viability, T/C [19]: 101%; viability, T/C [20]: 102%; viability, T/C [21]: 103%; viability, T/C [22]: 104%; viability, T/C [23]: 97.4%; viability, T/C [24]: 49.2%; viability, T/C [25]: 99.5%; viability, T/C [26]: 101%; viability, T/C [27]: 101%; viability, T/C [28]: 98.2%; viability, T/C [29]: 91.8%; viability, T/C [30]: 41%
